Columns and labels:
AR / CBP ternary complex = assay: Ternary complex formation assay (sandwich ELISA, AR capture / CBP detection) in VCaP cell lysates; type: cell-based; details: 1.5 hours treatment, sandwich ELISA (AR capture, CBP or p300 detection)
Procedure, shortened: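 VCaP cells (50K/well, 5% charcoal-stripped FBS, ≥3 days) treated with bifunctional compound for 1.5 h, then lysed 30 min at 4 °C. AR captured on anti-AR (AR 441) plates; bound CBP or p300 detected by rabbit mAb plus HRP secondary. QuantaRed chemifluorescence read at ex 570/em 585, immediately and at 5 and 15 min.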

VCaP cells = assay: VCaP growth inhibition assay; type: cell-based; details: 30 pM R1881, 9 days, CTG
Procedure, shortened: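 VCaP cells in phenol red-free DMEM/5% CSS, pre-incubated 72 h, then stimulated with R1881 (final 30 pM) and treated with 1:5 serial dilutions (final 100 nM to 10 fM) for 9 days at 37 °C. Viability by CellTiter-Glo luminescence; IC50 from 4-parameter logistic fit of RLU vs concentration.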

Structure (SMILES) | EC50 (AR / CBP ternary complex) | IC50 (VCaP cells)
CC(=O)N1CCc2c(c(N3CCCc4cc(-c5cnn(C)c5)c(C(F)F)cc43)nn2C2CCN(C(C)CC3CCN(c4ncc(C(=O)NC5C(C)(C)C(Oc6ccc(C#N)c(Cl)c6)C5(C)C)cn4)CC3)CC2)C1 (stereo not drawn) [Compound 171, 2-[4-[2-[4-[5-acetyl-3-[7-(difluoromethyl)-6-(1-methylpyrazol-4-yl)-3,4-dihydro-2H-quinolin-1-yl]-6,7-dihydro-4H-pyrazolo[4,3-c]pyridin-1-yl]-1-piperidyl]propyl]-1-piperidyl]-N-[3-(3-chloro-4-cyano-phenoxy)-2,2,4,4-tetramethyl-cyclobutyl]pyrimidine-5-carboxamide] | < 1 nM | ≤ 0.1 nM
COc1cc(OC2C(C)(C)C(NC(=O)c3ccc(N4CCN(C5CCN(c6ccc(-c7cc8c(cc7C(F)F)N(c7nn(C9CCOCC9)c9c7CN(C(C)=O)CC9)CCC8)cn6)CC5)CC4)cc3)C2(C)C)ccc1C#N (stereo not drawn) [Compound 325, 4-[4-[1-[5-[1-(5-acetyl-1-tetrahydropyran-4-yl-6,7-dihydro-4H-pyrazolo[4,3-c]pyridin-3-yl)-7-(difluoromethyl)-3,4-dihydro-2H-quinolin-6-yl]-2-pyridyl]-4-piperidyl]piperazin-1-yl]-N-[3-(4-cyano-3-methoxy-phenoxy)-2,2,4,4-tetramethyl-cyclobutyl]benzamide] | < 1 nM | 0.1 to 1 nM
CC(=O)N1CCc2c(c(N3CCCc4ccccc43)nn2C2CCN(CC3CCN(c4ncc(C(=O)NC5C(C)(C)C(Oc6ccc(C#N)c(Cl)c6)C5(C)C)cn4)CC3)CC2)C1 (stereo not drawn) [Compound 158, 2-[4-[[4-[5-acetyl-3-(3,4-dihydro-2H-quinolin-1-yl)-6,7-dihydro-4H-pyrazolo[4,3-c]pyridin-1-yl]-1-piperidyl]methyl]-1-piperidyl]-N-[3-(3-chloro-4-cyano-phenoxy)-2,2,4,4-tetramethyl-cyclobutyl]pyrimidine-5-carboxamide] | 1 to 10 nM | ≤ 0.1 nM
CC(=O)N1CCc2c(c(N3CCCc4cc(-c5cnn(C)c5)c(C(F)F)cc43)nn2C2CCN(CCOC3CCN(c4ncc(C(=O)NC5C(C)(C)C(Oc6ccc(C#N)c(Cl)c6)C5(C)C)cn4)CC3)CC2)C1 (stereo not drawn) [Compound 170, 2-[4-[2-[4-[5-acetyl-3-[7-(difluoromethyl)-6-(1-methylpyrazol-4-yl)-3,4-dihydro-2H-quinolin-1-yl]-6,7-dihydro-4H-pyrazolo[4,3-c]pyridin-1-yl]-1-piperidyl]ethoxy]-1-piperidyl]-N-[3-(3-chloro-4-cyano-phenoxy)-2,2,4,4-tetramethyl-cyclobutyl]pyrimidine-5-carboxamide] | < 1 nM | 0.1 to 1 nM
CC(=O)N1CCc2c(c(N3CCCc4cc(-c5cnn(C)c5)c(C(F)F)cc43)nn2C2CCN(CC3CCN(c4ncc(C(=O)NC5C(C)(C)C(Oc6ccc(C#N)c(Cl)c6)C5(C)C)nn4)CC3)CC2)C1 (stereo not drawn) [Compound 152] | > 100 nM | ≤ 0.1 nM
CC(=O)N1CCc2c(c(N3CCCc4cc(-c5cnn(C)c5)c(C(F)F)cc43)nn2C2CCN(CCc3ncc(C(=O)NC4C(C)(C)C(Oc5ccc(C#N)c(Cl)c5)C4(C)C)cn3)CC2)C1 (stereo not drawn) [Compound 92, 2-[2-[4-[5-acetyl-3-[7-(difluoromethyl)-6-(1-methylpyrazol-4-yl)-3,4-dihydro-2H-quinolin-1-yl]-6,7-dihydro-4H-pyrazolo[4,3-c]pyridin-1-yl]-1-piperidyl]ethyl]-N-[3-(3-chloro-4-cyano-phenoxy)-2,2,4,4-tetramethyl-cyclobutyl]pyrimidine-5-carboxamide] | > 100 nM | > 100 nM
COc1cc(OC2C(C)(C)C(NC(=O)c3ccc(OC4CC(N5CCC(n6nc(N7CCCc8cc(-c9cnn(C)c9)c(C(F)F)cc87)c7c6CCN(C(C)=O)C7)CC5)C4)cc3)C2(C)C)ccc1C#N (stereo not drawn) [Compound 375, 4-[3-[4-[5-acetyl-3-[7-(difluoromethyl)-6-(1-methylpyrazol-4-yl)-3,4-dihydro-2H-quinolin-1-yl]-6,7-dihydro-4H-pyrazolo[4,3-c]pyridin-1-yl]-1-piperidyl]cyclobutoxy]-N-[3-(4-cyano-3-methoxy-phenoxy)-2,2,4,4-tetramethyl-cyclobutyl]benzamide] | < 1 nM | 0.1 to 1 nM
CC(=O)N1CCc2c(c(N3CCCc4cc(-c5cnn(C)c5)c(C(F)F)cc43)nn2C2CCN(C3CC(Oc4ncc(C(=O)NC5C(C)(C)C(Oc6ccc(C#N)c(Cl)c6)C5(C)C)cn4)C3)CC2)C1 (stereo not drawn) [Compound 376, 2-[3-[4-[5-acetyl-3-[7-(difluoromethyl)-6-(1-methylpyrazol-4-yl)-3,4-dihydro-2H-quinolin-1-yl]-6,7-dihydro-4H-pyrazolo[4,3-c]pyridin-1-yl]-1-piperidyl]cyclobutoxy]-N-[3-(3-chloro-4-cyano-phenoxy)-2,2,4,4-tetramethyl-cyclobutyl]pyrimidine-5-carboxamide] | < 1 nM | 0.1 to 1 nM
CC(=O)N1CCc2c(c(N3CCCc4cc(-c5cnn(C)c5)c(C(F)F)cc43)nn2C2CCN(C3CC4(CC(Oc5ncc(C(=O)NC6C(C)(C)C(Oc7ccc(C#N)c(Cl)c7)C6(C)C)cn5)C4)C3)CC2)C1 (stereo not drawn) [Compound 385, 2-[6-[4-[5-acetyl-3-[7-(difluoromethyl)-6-(1-methylpyrazol-4-yl)-3,4-dihydro-2H-quinolin-1-yl]-6,7-dihydro-4H-pyrazolo[4,3-c]pyridin-1-yl]-1-piperidyl]spiro[3.3]heptan-2-yl]oxy-N-[3-(3-chloro-4-cyano-phenoxy)-2,2,4,4-tetramethyl-cyclobutyl]pyrimidine-5-carboxamide] | < 1 nM | 0.1 to 1 nM
CC(=O)N1CCc2c(c(N3CCCc4cc(-c5cnn(C)c5)c(C(F)F)cc43)nn2C2CCN(C3CC4(C3)CN(c3ncc(C(=O)NC5C(C)(C)C(Oc6ccc(C#N)c(Cl)c6)C5(C)C)cn3)C4)CC2)C1 (stereo not drawn) [Compound 348, 2-[6-[4-[5-acetyl-3-[7-(difluoromethyl)-6-(1-methylpyrazol-4-yl)-3,4-dihydro-2H-quinolin-1-yl]-6,7-dihydro-4H-pyrazolo[4,3-c]pyridin-1-yl]-1-piperidyl]-2-azaspiro [3.3]heptan-2-yl]-N-[3-(3-chloro-4-cyano-phenoxy)-2,2,4,4-tetramethyl-cyclobutyl]pyrimidine-5-carboxamide] | < 1 nM | ≤ 0.1 nM
CC(=O)N1CCc2c(c(-c3cccc4cc(-c5ccc(CC6CC7(C6)CN(c6ncc(C(=O)NC8C(C)(C)C(Oc9ccc(C#N)c(Cl)c9)C8(C)C)cn6)C7)nc5)ncc34)nn2C)C1 (stereo not drawn) [Compound 230, 2-[6-[[5-[8-(5-acetyl-1-methyl-6,7-dihydro-4H-pyrazolo[4,3-c]pyridin-3-yl)-3-isoquinolyl]-2-pyridyl]methyl]-2-azaspiro[3.3]heptan-2-yl]-N-[3-(3-chloro-4-cyano-phenoxy)-2,2,4,4-tetramethyl-cyclobutyl]pyrimidine-5-carboxamide] | 10 to 100 nM | 0.1 to 1 nM
CC(=O)N1CCc2c(c(N3CCCc4cc(-c5cnn(C)c5)c(C)cc43)nn2C2CCN(CC3CCN(c4ncc(C(=O)NC5C(C)(C)C(Oc6ccc(C#N)c(Cl)c6)C5(C)C)cn4)CC3)CC2)C1 (stereo not drawn) [Compound 26, 2-[4-[[4-[5-acetyl-3-[7-methyl-6-(1-methylpyrazol-4-yl)-3,4-dihydro-2H-quinolin-1-yl]-6,7-dihydro-4H-pyrazolo[4,3-c]pyridin-1-yl]-1-piperidyl]methyl]-1-piperidyl]-N-[3-(3-chloro-4-cyano-phenoxy)-2,2,4,4-tetramethyl-cyclobutyl]pyrimidine-5-carboxamide] | < 1 nM | 0.1 to 1 nM
CC(=O)N1CCc2c(c(N3CCCc4cc(-c5cnn(C)c5)c(C(F)F)cc43)nn2C2CC3(CCN(C4CCN(c5ncc(C(=O)NC6C(C)(C)C(Oc7ccc(C#N)c(Cl)c7)C6(C)C)cn5)CC4)CC3)C2)C1 (stereo not drawn) [Compound 373, 2-[4-[2-[5-acetyl-3-[7-(difluoromethyl)-6-(1-methylpyrazol-4-yl)-3,4-dihydro-2H-quinolin-1-yl]-6,7-dihydro-4H-pyrazolo[4,3-c]pyridin-1-yl]-7-azaspiro[3.5]nonan-7-yl]-1-piperidyl]-N-[3-(3-chloro-4-cyano-phenoxy)-2,2,4,4-tetramethyl-cyclobutyl]pyrimidine-5-carboxamide] | < 1 nM | ≤ 0.1 nM
COc1cc(OC2C(C)(C)C(NC(=O)c3ccc(N4CCN(C5CN(c6ccc(-c7cc8c(cn7)N(c7nn(C9CCOCC9)c9c7CN(C(C)=O)CC9)CCC8)cn6)C5)CC4)cc3)C2(C)C)ccc1C#N (stereo not drawn) [Compound 324, 4-[4-[1-[5-[1-(5-acetyl-1-tetrahydropyran-4-yl-6,7-dihydro-4H-pyrazolo[4,3-c]pyridin-3-yl)-3,4-dihydro-2H-1,7-naphthyridin-6-yl]-2-pyridyl]azetidin-3-yl]piperazin-1-yl]-N-[3-(4-cyano-3-methoxy-phenoxy)-2,2,4,4-tetramethyl-cyclobutyl]benzamide] | < 1 nM | ≤ 0.1 nM
CC(=O)N1CCc2c(c(-c3cccc4cc(-c5ccc(C(=O)NCCC6CCN(c7ncc(C(=O)NC8C(C)(C)C(Oc9ccc(C#N)c(Cl)c9)C8(C)C)cn7)CC6)nc5)ncc34)nn2C2CCOCC2)C1 (stereo not drawn) [Compound 179, 2-[4-[2-[[5-[8-(5-acetyl-1-tetrahydropyran-4-yl-6,7-dihydro-4H-pyrazolo[4,3-c]pyridin-3-yl)-3-isoquinolyl]pyridine-2-carbonyl]amino]ethyl]-1-piperidyl]-N-[3-(3-chloro-4-cyano-phenoxy)-2,2,4,4-tetramethyl-cyclobutyl]pyrimidine-5-carboxamide] | < 1 nM | 0.1 to 1 nM
